Where a SMILES comes first, the peptide text is derived from it. [ ]: non-standard residue; d: D form. The star is where a group is joined. Dolaproine = CO[C@@H]([C@@H]1CCCN1)[C@@H](C)C(=O)O; Dil = CC[C@H](C)[C@H](NC)[C@@H](CC(=O)O)OC; X1 = C[C@@H](N*)[C@@H](O)c1ccccc1; NMeV = CN[C@H](C(=O)O)C(C)C

For one data set, the system named is HCC1954 cells. Put plainly: Cytotoxicity. The data set is classed as cell-based. The note with it: for IC50: read-out: Free payload IC50.
For the next data set, the system named is MDA-MB-468 cells. Put plainly: Cytotoxicity. The data set is classed as cell-based. The note with it: for IC50: read-out: Free payload IC50, MDA-MB-468 cells.
In the next data set the test system is tumor spheroids. Put plainly: Tumor spheroid pharmacodynamic marker. The data set is classed as cell-based. Particulars: for Bystander penetration in spheroids by γH2A.X PD signal (in words): 24-72 hours; for Bystander penetration in spheroids by pH3 PD signal (in words): 25 nM AF680-ADC or AF680-trastuzumab, 24-48 hours.
In data set [1] the test system is HCC1954 (Ag+) and MDA-MB-468 (Ag−) co-culture. Put plainly: Bystander co-culture assay. It counts as cell-based.
A further data set in a line: PAMPA permeability assay. Particulars: free payload. A general note: The PAMPA barrier holds no transporters, so it reflects passive diffusion.

A word on the IC50: it is the concentration that inhibits the measured activity by half. In the case of `CCc1c2c(nc3ccc(O)cc13)-c1cc3c(c(=O)n1C2)COC(=O)[C@]3(O)CC` [SN-38], the IC50 with HCC1954 cells is approximately 1.8 nM. Besides, in the data set on MDA-MB-468 cells, the “Fold higher free payload sensitivity of MDA-MB-468 cells compared to HCC1954” value is listed as 2–3 fold and the IC50 is approximately 0.6 nM. Besides, the “Bystander penetration in spheroids by γH2A.X PD signal (in words)” value with tumor spheroids (25 nM AF680-ADC) is “not readily apparent”.

As to T-DM1, the “Distance from spheroid edge of directly targeted cells showing pH3 signal” value with tumor spheroids (25 nM AF680-ADC) is ~ 75 µm. Besides, the “Bystander penetration in spheroids by pH3 PD signal (in words)” value in the data set with tumor spheroids is “did not exhibit bystander killing even at 48 hours”. Besides, the “Ag+ cell death in co-culture (in words)” value in data set [1] (1 nM ADC, 6 days) is “complete Ag+ cell death”. For the same molecule, the “Ag− cell bystander toxicity in co-culture (in words)” value in data set [1] (1 nM ADC, 6 days, varying % Ag+ cells) is reported as “no Ag− toxicity even at a 90% Ag+ cell percentage”.

In the case of calicheamicin G [CaliG], the “Bystander penetration in spheroids by γH2A.X PD signal (in words)” value with tumor spheroids (25 nM AF680-ADC) was “negligible”.

With Ahx-maytansine, in the data set with tumor spheroids, the “Bystander penetration in spheroids by pH3 PD signal (in words)” value is given as “detectable but localized bystander cell death”.

Regarding `CC[C@H](C)[C@@H]([C@@H](CC(=O)N1CCC[C@H]1[C@H](OC)[C@@H](C)C(=O)N[C@H](C)[C@@H](O)c1ccccc1)OC)N(C)C(=O)[C@@H](NC(=O)[C@@H](NC)C(C)C)C(C)C` [MMAE] (H-[NMeV]V[Dil][Dolaproine]-X1), in the data set on HCC1954 cells, the “Free payload IC50, fold more potent than either Ahx-maytansine or Lys-SMCC-DM1” value is “over 100 fold”. In the data set with tumor spheroids, the “Bystander penetration in spheroids by pH3 PD signal (in words)” value is recorded as “pH3 signal throughout the spheroid at 48 hours”. Besides, the “PAMPA permeability, fold higher than either Ahx-maytansine or Lys-SMCC-DM1” value in “PAMPA permeability assay” is approximately 10 fold.

Consider `CC[C@@]1(O)C(=O)OCc2c1cc1n(c2=O)Cc2c-1nc1cc(F)c(C)c3c1c2[C@@H](NC(=O)CO)CC3` [DXd], for which, in the data set on HCC1954 cells, the IC50 was approximately 6.2 nM. In addition, in the data set with MDA-MB-468 cells, the “Fold higher free payload sensitivity of MDA-MB-468 cells compared to HCC1954” value was 2–3 fold and the IC50 is approximately 2.3 nM. Besides, the “Ag− cell death in co-culture” value in data set [1] (any concentration higher than 250 pM) amounted to 100%.

Consider calicheamicin D [CaliD], for which the “Bystander penetration in spheroids by γH2A.X PD signal (in words)” value in the data set with tumor spheroids (25 nM AF680-ADC) was “greatest bystander cell killing”. For the same molecule, the “PD response in spheroids with potency matched doses (in words)” value in the data set with tumor spheroids (T-CaliG 75nM, T-CaliD 1nM) is recorded as “more efficient at reaching cells in the spheroid center”.

In the case of `CC[C@@]1(O)C(=O)OCc2c1cc1n(c2=O)Cc2c-1nc1cc(F)c(C)c3c1c2[C@@H](N)CC3` [exatecan], in the data set on tumor spheroids (25 nM AF680-ADC), the “Bystander penetration in spheroids by γH2A.X PD signal (in words)” value is given as “greatest PD signal at the spheroid center”. The “Bystander efficiency in modified co-culture (in words)” value in data set [1] (fixed number of Ag− cells, increasing number of Ag+ cells, fixed ADC concentration) is on record as “more efficient”. Also, in “PAMPA permeability assay”, the “PAMPA permeability, fold higher than DXd” value is given as ~ 2 fold and the “PAMPA permeability, fold higher than SN-38” value is recorded as ~ 5 fold.
